Assay results reported in article PMC11672637, “7-O-Carboxylic Acid-Substituted 3-O-Alkyl Difluoroquercetin; An Aztreonam-Potentiating Agent Against Carbapenemase-Producing Pseudomonas aeruginosa Through Simultaneous Inhibition of Metallo-β-Lactamase and Efflux Pump” (Antibiotics, 2024).

Tests used:
Assay in all cases: MIC / checkerboard with ATM
Parameters in all cases: key to Susceptibility category: S: susceptible; I: intermediate; R: resistant
PA-009, blaGES = type: cell-based, P. aeruginosa; conditions: PA-009; Table S2
PA-014, blaGES = type: cell-based, P. aeruginosa; conditions: PA-014; Table S2
PA-035, blaGES = type: cell-based, P. aeruginosa; conditions: PA-035, Table S2; for MIC: Pseudomonas aeruginosa, read-out: MIC value
PA-003, blaVIM = type: cell-based, P. aeruginosa; conditions: PA-003, Table S2; for MIC: Pseudomonas aeruginosa, read-out: MIC value
PA-002, blaIMP = type: cell-based, P. aeruginosa; conditions: PA-002, Table S2; for MIC: Pseudomonas aeruginosa, read-out: MIC value
PA-016, blaIMP = type: cell-based, P. aeruginosa; conditions: PA-016; Table S2
PA-021, blaIMP = type: cell-based, P. aeruginosa; conditions: PA-021; Table S2
PA-027, blaIMP = type: cell-based, P. aeruginosa; conditions: PA-027; Table S2
PA-029, blaIMP = type: cell-based, P. aeruginosa; conditions: PA-029; Table S2
PA-030, blaIMP = type: cell-based, P. aeruginosa; conditions: PA-030; Table S2
PA-032, blaIMP = type: cell-based, P. aeruginosa; conditions: PA-032, Table S2
[1] = tested on: NDM-1-Producing P. aeruginosa (PA-017, blaNDM); type: cell-based; conditions: PA-017; Table S2
PA-025, blaNDM = type: cell-based, P. aeruginosa; conditions: PA-025; Table S2
PA-026, blaNDM = type: cell-based, P. aeruginosa; conditions: PA-026, Table S2; for MIC: Pseudomonas aeruginosa, read-out: MIC value
PA-028, blaNDM = type: cell-based, P. aeruginosa; conditions: PA-028; Table S2
PA-031, blaNDM = type: cell-based, P. aeruginosa; conditions: PA-031; Table S2
PA-033, blaNDM = type: cell-based, P. aeruginosa; conditions: PA-033; Table S2
PA-034, blaNDM = type: cell-based, P. aeruginosa; conditions: PA-034; Table S2
PA-036, blaNDM = type: cell-based, P. aeruginosa; conditions: PA-036; Table S2
PA-038, blaNDM = type: cell-based, P. aeruginosa; conditions: PA-038; Table S2
PA-039, blaNDM = type: cell-based, P. aeruginosa; conditions: PA-039, Table S2
PA-040, blaNDM = type: cell-based, P. aeruginosa; conditions: PA-040; Table S2
PA-041, blaNDM = type: cell-based, P. aeruginosa; conditions: PA-041, Table S2
PA-044, blaNDM = type: cell-based, P. aeruginosa; conditions: PA-044; Table S2
PA-037, blaIMP/NDM = type: cell-based, P. aeruginosa; conditions: PA-037; Table S2
PA-042, blaIMP/NDM = type: cell-based, P. aeruginosa; conditions: PA-042, Table S2
[2] = Pseudomonas aeruginosa, read-out: MIC value

Compound | Susceptibility category (PA-009, blaGES) | Susceptibility category (PA-014, blaGES) | Susceptibility category (PA-035, blaGES) | Susceptibility category (PA-003, blaVIM) | MIC (PA-003, blaVIM) [µg/mL] | Susceptibility category (PA-002, blaIMP) | MIC (PA-002, blaIMP) [µg/mL] | Susceptibility category (PA-016, blaIMP) | Susceptibility category (PA-021, blaIMP) | Susceptibility category (PA-027, blaIMP) | Susceptibility category (PA-029, blaIMP) | Susceptibility category (PA-030, blaIMP) | Susceptibility category (PA-032, blaIMP) | Susceptibility category [1] | Susceptibility category (PA-025, blaNDM) | Susceptibility category (PA-026, blaNDM) | MIC (PA-026, blaNDM) [µg/mL] | Susceptibility category (PA-028, blaNDM) | Susceptibility category (PA-031, blaNDM) | Susceptibility category (PA-033, blaNDM) | also measured
CNC(C)C1CCC(N)C(OC2C(N)CC(N)C(OC3OCC(C)(O)C(NC)C3O)C2O)O1 (stereo not drawn) [GEN, gentamicin, reference compound] | I | R | R | R | > 8 | R | > 8 | R | R | R | R | R | S | R | R | S | ≤ 2 | R | R | R | Susceptibility category (PA-034, blaNDM): R; Susceptibility category (PA-036, blaNDM): R; Susceptibility category (PA-038, blaNDM): R; Susceptibility category (PA-039, blaNDM): S; MIC (PA-039, blaNDM; [2]): ≤ 2 µg/mL; Susceptibility category (PA-040, blaNDM): R; Susceptibility category (PA-041, blaNDM): S; MIC (PA-041, blaNDM; [2]): ≤ 2 µg/mL; Susceptibility category (PA-044, blaNDM): R; Susceptibility category (PA-037, blaIMP/NDM): R; Susceptibility category (PA-042, blaIMP/NDM): R
C[C@@H](O)[C@H]1C(=O)N2C(C(=O)O)=C(SCCN=CN)C[C@H]12 [IPM, imipenem, reference compound] | R | R | R | R | > 8 | R | > 8 | R | R | R | R | R | R | R | R | I | 4 | R | R | R | MIC (PA-035, blaGES): 8 µg/mL; Susceptibility category (PA-034, blaNDM): R; Susceptibility category (PA-036, blaNDM): R; Susceptibility category (PA-038, blaNDM): R; Susceptibility category (PA-039, blaNDM): R; Susceptibility category (PA-040, blaNDM): R; Susceptibility category (PA-041, blaNDM): R; Susceptibility category (PA-044, blaNDM): R; Susceptibility category (PA-037, blaIMP/NDM): R; Susceptibility category (PA-042, blaIMP/NDM): R; MIC (PA-042, blaIMP/NDM; [2]): > 8 µg/mL
C[C@@H](O)[C@H]1C(=O)N2C(C(=O)O)=C(S[C@@H]3CN[C@H](C(=O)N(C)C)C3)[C@H](C)[C@H]12 [MEM, meropenem, reference compound] | R | R | R | R | 16 | R | > 32 | R | R | R | R | R | R | R | R | S | ≤ 0.25 | R | R | R | MIC (PA-035, blaGES): 16 µg/mL; MIC (PA-032, blaIMP; [2]): 32 µg/mL; Susceptibility category (PA-034, blaNDM): R; Susceptibility category (PA-036, blaNDM): R; Susceptibility category (PA-038, blaNDM): R; Susceptibility category (PA-039, blaNDM): R; Susceptibility category (PA-040, blaNDM): R; Susceptibility category (PA-041, blaNDM): R; Susceptibility category (PA-044, blaNDM): R; Susceptibility category (PA-037, blaIMP/NDM): R; Susceptibility category (PA-042, blaIMP/NDM): R
